Measurements taken from patent US8003678B2, “Therapeutic substituted thiazolidinones, oxazolidinones, and related compounds” (Allergan, Inc., priority 2006, dated 2011).
pEC50: −log10 of the molar value.

Molecular target: EP2 (Homo sapiens, UniProt P43116)
Test: EP2 cAMP
Assay type: cell-based
Text: U.S. patent application Ser. No. 11/553,143, filed on Oct. 26, 2006, incorporated by reference herein, describes the methods used to obtain the in vitro data in the table below.

Sequence of EP2 (P43116 whole entry): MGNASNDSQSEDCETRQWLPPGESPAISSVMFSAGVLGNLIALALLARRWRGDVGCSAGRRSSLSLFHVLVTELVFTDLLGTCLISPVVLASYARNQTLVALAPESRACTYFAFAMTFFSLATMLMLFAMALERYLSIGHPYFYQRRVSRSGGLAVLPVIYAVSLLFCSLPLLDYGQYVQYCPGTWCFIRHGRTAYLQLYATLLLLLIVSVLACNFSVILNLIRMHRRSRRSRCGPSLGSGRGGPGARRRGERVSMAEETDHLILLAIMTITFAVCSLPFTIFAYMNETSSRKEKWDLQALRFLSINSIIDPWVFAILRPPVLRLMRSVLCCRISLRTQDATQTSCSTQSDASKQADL

Row | pEC50 | SMILES
1 | 6.29 | CCCCCC(O)c1ccc(N2C(=O)CSC2CCCc2ccc(C(=O)O)s2)cc1 (centres unmarked)
2 | 10.22 | CCCCCC(O)c1ccc(N2C(=O)COC2CCCc2ccc(C(=O)O)s2)cc1 (centres unmarked)
